Results published in PMC10819171, “Development of Pleiotropic TrkB and 5-HT4 Receptor Ligands as Neuroprotective Agents” (Molecules, 2024).

Tests used:
5-HT4 receptor [1] = biological target: T1, 5-HT4 receptor (Homo sapiens, UniProt Q13639); assay: [3H]-GR113808 radioligand displacement at two concentrations; partial agonist reference in cAMP assay; assay type: binding; conditions: read-out: 5-HT4R (1 × 10^-6 M)
T1 construct: gene HTR4

[2] = biological target: T2, HA-tagged human 5-HT4 receptor (Homo sapiens, UniProt Q13639); assay: cell-based; set-up: cAMP production by HTRF in transiently transfected COS-7 cells, 10 min, with RO-20-1724; conditions: COS-7; read-out: Top AMPc
T2 construct: gene HTR4; HA-tagged, transiently expressed in COS-7 cells
T2 sequence (Q13639 whole entry): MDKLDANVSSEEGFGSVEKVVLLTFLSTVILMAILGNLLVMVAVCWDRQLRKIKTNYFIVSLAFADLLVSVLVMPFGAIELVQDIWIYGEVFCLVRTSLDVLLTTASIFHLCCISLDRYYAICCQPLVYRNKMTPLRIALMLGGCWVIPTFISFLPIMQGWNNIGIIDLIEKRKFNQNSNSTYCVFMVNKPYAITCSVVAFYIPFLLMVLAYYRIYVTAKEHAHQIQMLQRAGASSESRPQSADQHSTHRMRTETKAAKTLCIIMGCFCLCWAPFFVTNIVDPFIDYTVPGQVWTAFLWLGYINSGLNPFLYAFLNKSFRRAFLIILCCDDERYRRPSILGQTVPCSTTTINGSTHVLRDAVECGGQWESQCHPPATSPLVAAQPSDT
Procedure: COS-7 cells were purchased from ATCC (ATCC CRL-1651; LGC […], Molsheim, France). They were grown in Dulbecco’s modified Eagle medium (DMEM) supplemented with 10% dialyzed fetal calf serum (dFCS) and antibiotics. The cells were transiently transfected with the plasmid encoding HA-tagged human 5-HT4 receptor, then seeded in 96-wells plate (35,000 cells/well). Approximately 24 hrs after transfection, the cells were washed once with 200 µL of HBS (20 mM HEPES; 150 mM NaCl; 4.2 mM KCl; 0.9 mM CaCl2; 0.5 mM MgCl2; 0.1% glucose; 0.1% BSA) and, after HBS removal, exposed to the indicated concentrations of 5-HT4R ligands in the presence of 0.1 mM of the phosphodiesterase inhibitor RO-20-1724, at 37 °C in 100 µL of HBS. After 10 min, the cells were then lysed by the addition of the same volume of Triton-X100 (0.1%) during 30 min at 37 °C. Quantification of the cAMP production was performed by HTRF by using the cAMP—HTRF Gs Dynamic kit (Perkin Elmer, Codolet, France) according to the manufacturer’s instructions. 2.2.4.

5-HT4 receptor [3] = biological target: T1, 5-HT4 receptor; assay: [3H]-GR113808 radioligand competition, five-point inhibition curves; partial agonist in cAMP HTRF assay; assay type: binding
5-HT4 receptor [4] = biological target: T1, 5-HT4 receptor; assay: [3H]-GR113808 radioligand displacement at two concentrations; assay type: binding; conditions: read-out: 5-HT4R (1 × 10^-6 M)

T1 sequence (Q13639 whole entry): as above

With CCCCN1CCC(CCC(=O)c2cc(Cl)c(N)cc2OC)CC1 [RS67333] the inhibition at 1 µM (5-HT4 receptor [1]) was 100% and the Emax [2] was 68%.
In the case of COc1cc(N)c(Cl)cc1C(=O)CCC1CCN(CCNC(=O)c2cc(C(=O)NCCO)cc(C(=O)NCCO)c2)CC1 [compound 8, N^1-(2-{4-[3-(4-amino-5-chloro-2-methoxyphenyl)-3-oxopropyl]piperidin-1-yl}ethyl)-N^3,N^5-bis(2-hydroxyethyl)benzene-1,3,5-tricarboxamide], the Ki (5-HT4 receptor [3]) is reported as 42.6 ± 4.1 nM and the Emax [2] is reported as 48%.
COc1cc(N)c(Cl)cc1C(=O)CCC1CCN(CCCNC(=O)c2cc(C(=O)NCCO)cc(C(=O)NCCO)c2)CC1 [compound 13, N^1-(3-(4-(3-(4-amino-5-chloro-2-methoxyphenyl)-3-oxopropyl)piperidin-1-yl)propyl)-N^3,N^5-bis(2-hydroxyethyl)benzene-1,3,5-tricarboxamide] showed an inhibition at 1 µM (5-HT4 receptor [4]) of 82%.
With COc1cc(N)c(Cl)cc1C(=O)CCC1CCN(CCOCCNC(=O)c2cc(C(=O)NCCO)cc(C(=O)NCCO)c2)CC1 [compound 19, N^1-(2-(2-(4-(3-(4-amino-5-chloro-2-methoxyphenyl)-3-oxopropyl)piperidin-1-yl)ethoxy)ethyl)-N^3,N^5-bis(2-hydroxyethyl)benzene-1,3,5-tricarboxamide] the inhibition at 1 µM (5-HT4 receptor [4]) was 55%.
